# Assay results published in patent US20100311714A1, “1H-IMIDAZO[4,5-c]QUINOLINONE COMPOUNDS” (priority 2009, published 2010).
# Molecular target: T1, PI3K gamma (Homo sapiens, UniProt P48736)
# T1 construct: His tag (C); made in house; host or cells: construct from Roger Williams lab (pVL1393); baculovirus BV950; Tn5 (Trichoplusia ni) or TiniPro insect cells
# Experiment: PI3K gamma kinase assay (Kinase-Glo luminescence)
# Type: biochemical
# Conditions: read-out: PI3Kgamma/IC50
# Experimental: In a more preferred assay, the kinase reaction is performed in a final volume of 10 μL per well of a low volume non binding CORNING, 384 well black plate (Cat. No. #3676). The final concentrations of ATP and phosphatidyl inositol (PI) in the assay are 1 μM and 10 μg/mL respectively. The reaction is started by the addition of ATP.
# The components of the assay are added per well as follows:
# 50 nL test compounds in 90% DMSO per well, in columns 1-20, 8 concentrations (⅓ and 1/3.33 serial dilution step) in single. • Low control: […] of 90% DMSO in half the wells of columns 23-24 (0.45% in final). • High control: 50 nL of reference compound (e.g. compound of Example 7 in WO 2006/122806) in the other half of columns 23-24 (2.5 μM in final). • Standard: 50 nL of reference compound as just mentioned diluted as the test compounds in columns 21-22 • 20 mL ‘buffer’ are prepared per assay: • 200 μL of 1M TRIS HCl pH7.5 (10 mM in final) • 60 μL of 1M MgCl2 (3 mM in final) • 500 μL of 2M NaCl (50 mM in final) • 100 μL of 10% CHAPS (0.05% in final) • 200 μL of 100 mM DTT (1 mM in final) • 18.94 mL of nanopure water • 10 mL ‘PI’ are prepared per assay: • 200 μL of 1 mg/ml L-alpha-Phosphatidylinositol (Liver Bovine, Avanti Polar Lipids Cat. No. 840042C MW=909.12) prepared in 3% OctylGlucoside (10 μg/ml in final) • 9.8 mL of ‘buffer’ • 10 mL ‘ATP’ are prepared per assay: • 6.7 μL of 3 mM stock of ATP giving a final concentration of 1 μM per well • 10 mL of ‘buffer’ • 2.5 mL of each PI3K construct are prepared per assay in ‘PI’ with the following final concentration: • 10 nM PI3K alfa EMV B1075 • 25 nM beta EMV BV949 • 10 nM delta EMV BV1060 • 150 nM gamma EMV BV950 • 5 μL of ‘PI/PI3K’ are added per well. • 5 μl ‘ATP’ are added per well to start the reaction. • The plates are then incubated at room temperature for 60 minutes (alfa, beta, delta) or 120 minutes (gamma). • The reaction is terminated by the addition of 10 μL Kinase-Glo (Promega Cat. No. #6714). • The assay plates are read after 10 minutes in Synergy 2 reader (BioTek, Vermont USA) with an integration time of 100 milliseconds and sensitivity set to 191. • Output: The High control is around 60′000 counts and the Low control is 30′000 or lower • This luminescence assay gives a useful Z′ ratio between 0.4 and 0.7
# PI3K gamma is purified in two chromatographic steps: immobilized metal affinity chromatography (IMAC) on a Ni Sepharose resin (GE Healthcare) and gel filtration (GFC) utilizing a Superdex 200 26/60 column (GE Healthcare). All buffers are chilled to 4° C. and lysis is performed chilled on ice. Column fractionation is performed rapidly at room temperature. Typically frozen insect cells are lysed in a hypertonic lysis buffer and applied to a prepared IMAC column. The resin is washed with 3-5 column volumes of lysis buffer, followed by 3-5 column volumes wash buffer containing 45 mM imidazole, and the target protein is then eluted with a buffer containing 250 mM imidazole. Fractions are analyzed by Coomassie stained SDS-PAGE gels, and fractions containing target protein are pooled and applied to a prepared GFC column. Fractions from the GFC column are analyzed by Coomassie stained SDS-PAGE gels, and fractions containing target protein are pooled. The final pool is dialyzed into a storage buffer containing 50% glycerol and stored at −20° C. The final pool is assayed for activity in the phosphoinostitol kinase assay.
# IC50 is determined by a four parameter curve fitting routine that comes along with “excel fit”. A 4 Parameter logistic equation is used to calculate IC50 values (IDBS XLfit) of the percentage inhibition of each compound at 8 concentrations (usually 10, 3.0, 1.0, 0.3, 0.1, 0.030, 0.010 and 0.003 μM). Alternatively, IC50 values are calculated using idbsXLfit model 204, which is a 4 parameter logistic model.
# T1 sequence (P48736 144-1102 limits assumed): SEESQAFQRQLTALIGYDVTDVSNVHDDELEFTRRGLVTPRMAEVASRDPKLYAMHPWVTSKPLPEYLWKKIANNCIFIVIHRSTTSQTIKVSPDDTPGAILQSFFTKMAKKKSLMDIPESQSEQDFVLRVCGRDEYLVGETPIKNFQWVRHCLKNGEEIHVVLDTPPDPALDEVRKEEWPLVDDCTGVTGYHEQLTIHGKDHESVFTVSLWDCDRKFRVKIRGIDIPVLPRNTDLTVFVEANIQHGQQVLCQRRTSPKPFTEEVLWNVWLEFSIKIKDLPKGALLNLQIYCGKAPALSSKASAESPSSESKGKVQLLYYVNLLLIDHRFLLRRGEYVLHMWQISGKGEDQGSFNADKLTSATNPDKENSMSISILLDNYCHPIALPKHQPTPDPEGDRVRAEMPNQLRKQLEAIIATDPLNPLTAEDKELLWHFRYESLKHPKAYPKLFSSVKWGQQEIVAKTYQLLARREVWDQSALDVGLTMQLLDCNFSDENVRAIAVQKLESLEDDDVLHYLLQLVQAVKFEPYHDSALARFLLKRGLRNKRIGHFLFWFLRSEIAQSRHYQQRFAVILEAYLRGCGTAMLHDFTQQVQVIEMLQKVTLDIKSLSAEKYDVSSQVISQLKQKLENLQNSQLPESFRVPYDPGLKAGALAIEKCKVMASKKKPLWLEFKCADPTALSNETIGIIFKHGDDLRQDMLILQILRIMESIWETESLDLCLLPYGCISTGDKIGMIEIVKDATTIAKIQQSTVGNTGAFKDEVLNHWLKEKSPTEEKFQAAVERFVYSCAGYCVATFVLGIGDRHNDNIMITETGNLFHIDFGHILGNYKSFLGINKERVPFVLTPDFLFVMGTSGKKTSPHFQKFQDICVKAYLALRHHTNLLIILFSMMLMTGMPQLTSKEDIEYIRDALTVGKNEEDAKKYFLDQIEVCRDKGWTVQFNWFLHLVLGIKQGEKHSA
row,IC50 [nM],SMILES
1,522,"CCOc1ccc(-c2ccc3ncc4c(c3c2)n(-c2ncccc2C)c(=O)n4C)cn1 [Example 3.6, 8-(6-Ethoxy-pyridin-3-yl)-3-methyl-1-(3-methyl-pyridin-2-yl)-1,3-dihydro-imidazo[4,5-c]quinolin-2-one]"
2,139,"Cn1c(=O)n(-c2cccnc2F)c2c3cc(-c4cnc(N)c(C(F)(F)F)c4)ccc3ncc21 [Example 6.2, 8-(6-Amino-5-trifluoromethyl-pyridin-3-yl)-1-(2-fluoro-pyridin-3-yl)-3-methyl-1,3-dihydro-imidazo[4,5-c]quinolin-2-one]"
3,439,"COc1ccc(-c2ccc3ncc4c(c3c2)n(-c2cnccc2C)c(=O)n4C)cn1 [Example 4.3, 8-(6-Methoxy-pyridin-3-yl)-3-methyl-1-(4-methyl-pyridin-3-yl)-1,3-dihydro-imidazo[4,5-c]quinolin-2-one]"
4,202,"Cc1cccnc1-n1c(=O)n(C)c2cnc3ccc(-c4cnc(N)c(C(F)(F)F)c4)cc3c21 [Example 3.12, 8-(6-Amino-5-trifluoromethyl-pyridin-3-yl)-3-methyl-1-(3-methyl-pyridin-2-yl)-1,3-dihydro-imidazo[4,5-c]quinolin-2-one]"
5,195,"CNc1ccc(-c2ccc3ncc4c(c3c2)n(-c2cccnc2C)c(=O)n4C)cn1 [Example 2.13, 3-Methyl-8-(6-methylamino-pyridin-3-yl)-1-(2-methyl-pyridin-3-yl)-1,3-dihydro-imidazo[4,5-c]quinolin-2-one]"
6,846,"Cc1cccnc1-n1c(=O)n(C)c2cnc3ccc(-c4ccc(N(C)C)nc4)cc3c21 [Example 3.11, 8-(6-Dimethylamino-pyridin-3-yl)-3-methyl-1-(3-methyl-pyridin-2-yl)-1,3-dihydro-imidazo[4,5-c]quinolin-2-one]"
7,388,"Cc1ncccc1-n1c(=O)n(C)c2cnc3ccc(-c4ccc(N)nc4)cc3c21 [Example 2.7, 8-(6-Amino-pyridin-3-yl)-3-methyl-1-(2-methyl-pyridin-3-yl)-1,3-dihydro-imidazo[4,5-c]quinolin-2-one]"
8,206,"CCOc1ccc(-c2ccc3ncc4c(c3c2)n(-c2cccnc2F)c(=O)n4C)cn1 [Example 6.1, 8-(6-Ethoxy-pyridin-3-yl)-1-(2-fluoro-pyridin-3-yl)-3-methyl-1,3-dihydro-imidazo[4,5-c]quinolin-2-one]"
9,126,"COc1ccc(-c2ccc3ncc4c(c3c2)n(-c2cccnc2C)c(=O)n4C)cc1OC [Example 2.9, 8-(3,4-Dimethoxy-phenyl)-3-methyl-1-(2-methyl-pyridin-3-yl)-1,3-dihydro-imidazo[4,5-c]quinolin-2-one]"
10,230,"Cc1ncccc1-n1c(=O)n(C)c2cnc3ccc(-c4ccc(C(N)=O)cc4)cc3c21 [Example 2.3, 4-[3-Methyl-1-(2-methyl-pyridin-3-yl)-2-oxo-2,3-dihydro-1H-imidazo[4,5-c]quinolin-8-yl]-benzamide]"
11,913,"Cc1ncccc1-n1c(=O)n(C)c2cnc3ccc(-c4ccc(CO)nc4)cc3c21 [Example 2.6, 8-(6-Hydroxymethyl-pyridin-3-yl)-3-methyl-1-(2-methyl-pyridin-3-yl)-1,3-dihydro-imidazo[4,5-c]quinolin-2-one]"
12,546,"CCOc1ccc(-c2ccc3ncc4c(c3c2)n(-c2cnccc2C)c(=O)n4C)cn1 [Example 4.2, 8-(6-Ethoxy-pyridin-3-yl)-3-methyl-1-(4-methyl-pyridin-3-yl)-1,3-dihydro-imidazo[4,5-c]quinolin-2-one]"
13,307,"COc1ccc(-c2ccc3ncc4c(c3c2)n(-c2ncccc2C)c(=O)n4C)cc1OC [Example 3.10, 8-(3,4-Dimethoxy-phenyl)-3-methyl-1-(3-methyl-pyridin-2-yl)-1,3-dihydro-imidazo[4,5-c]quinolin-2-one]"
14,124,"Cc1ncccc1-n1c(=O)n(C)c2cnc3ccc(-c4cnc(N)c(C(F)(F)F)c4)cc3c21 [Example 2.11, 8-(6-Amino-5-trifluoromethyl-pyridin-3-yl)-3-methyl-1-(2-methyl-pyridin-3-yl)-1,3-dihydro-imidazo[4,5-c]quinolin-2-one]"
15,168,"COc1ncccc1-n1c(=O)n(C)c2cnc3ccc(-c4cnc5[nH]ccc5c4)cc3c21 [Example 1.2, 1-(2-Methoxy-pyridin-3-yl)-3-methyl-8-(1H-pyrrolo[2,3-b]pyridin-5-yl)-1,3-dihydro-imidazo[4,5-c]quinolin-2-one]"
16,362,"CN(C)c1ccc(-c2ccc3ncc4c(c3c2)n(-c2cccnc2)c(=O)n4C)cn1 [Example 5.3, 8-(6-Dimethylamino-pyridin-3-yl)-3-methyl-1-pyridin-3-yl-1,3-dihydro-imidazo[4,5-c]quinolin-2-one]"
17,943,"Cn1c(=O)n(-c2cccnc2)c2c3cc(-c4ccc(CO)nc4)ccc3ncc21 [Example 5.1, 8-(6-Hydroxymethyl-pyridin-3-yl)-3-methyl-1-pyridin-3-yl-1,3-dihydro-imidazo[4,5-c]quinolin-2-one]"
18,242,"COc1ccc(-c2ccc3ncc4c(c3c2)n(-c2cccnc2C)c(=O)n4C)cn1 [Example 2.12, 8-(6-Methoxy-pyridin-3-yl)-3-methyl-1-(2-methyl-pyridin-3-yl)-1,3-dihydro-imidazo[4,5-c]quinolin-2-one]"
19,386,"CNc1ncc(-c2ccc3ncc4c(c3c2)n(-c2ncccc2C)c(=O)n4C)cn1 [Example 3.4, 3-Methyl-8-(2-methylamino-pyrimidin-5-yl)-1-(3-methyl-pyridin-2-yl)-1,3-dihydro-imidazo[4,5-c]quinolin-2-one]"
20,434,"CNC(=O)c1ccc(-c2ccc3ncc4c(c3c2)n(-c2ncccc2C)c(=O)n4C)cc1 [Example 3.5, N-Methyl-4-[3-methyl-1-(3-methyl-pyridin-2-yl)-2-oxo-2,3-dihydro-1H-imidazo[4,5-c]quinolin-8-yl]-benzamide]"
21,120,"COc1ncccc1-n1c(=O)n(C)c2cnc3ccc(-c4ccc(C(N)=O)cc4)cc3c21 [Example 1.6, 4-[1-(2-Methoxy-pyridin-3-yl)-3-methyl-2-oxo-2,3-dihydro-1H-imidazo[4,5-c]quinolin-8-yl]-benzamide]"
22,322,"Cc1cccnc1-n1c(=O)n(C)c2cnc3ccc(-c4ccc(C(N)=O)cc4)cc3c21 [Example 3.3, 4-[3-Methyl-1-(3-methyl-pyridin-2-yl)-2-oxo-2,3-dihydro-1H-imidazo[4,5-c]quinolin-8-yl]-benzamide]"
